These are literature values, as cited in US12318448B2, “Use of TLR agonist and anti-CD47 agent to enhance phagocytosis of cancer cells” (The Board of Trustees of the Leland Stanford Junior …, priority 2015, dated 2025).

For this series, the target named is T1, TLR7 (Homo sapiens, UniProt Q9NYK1).
T1 sequence (Q9NYK1 27-1049): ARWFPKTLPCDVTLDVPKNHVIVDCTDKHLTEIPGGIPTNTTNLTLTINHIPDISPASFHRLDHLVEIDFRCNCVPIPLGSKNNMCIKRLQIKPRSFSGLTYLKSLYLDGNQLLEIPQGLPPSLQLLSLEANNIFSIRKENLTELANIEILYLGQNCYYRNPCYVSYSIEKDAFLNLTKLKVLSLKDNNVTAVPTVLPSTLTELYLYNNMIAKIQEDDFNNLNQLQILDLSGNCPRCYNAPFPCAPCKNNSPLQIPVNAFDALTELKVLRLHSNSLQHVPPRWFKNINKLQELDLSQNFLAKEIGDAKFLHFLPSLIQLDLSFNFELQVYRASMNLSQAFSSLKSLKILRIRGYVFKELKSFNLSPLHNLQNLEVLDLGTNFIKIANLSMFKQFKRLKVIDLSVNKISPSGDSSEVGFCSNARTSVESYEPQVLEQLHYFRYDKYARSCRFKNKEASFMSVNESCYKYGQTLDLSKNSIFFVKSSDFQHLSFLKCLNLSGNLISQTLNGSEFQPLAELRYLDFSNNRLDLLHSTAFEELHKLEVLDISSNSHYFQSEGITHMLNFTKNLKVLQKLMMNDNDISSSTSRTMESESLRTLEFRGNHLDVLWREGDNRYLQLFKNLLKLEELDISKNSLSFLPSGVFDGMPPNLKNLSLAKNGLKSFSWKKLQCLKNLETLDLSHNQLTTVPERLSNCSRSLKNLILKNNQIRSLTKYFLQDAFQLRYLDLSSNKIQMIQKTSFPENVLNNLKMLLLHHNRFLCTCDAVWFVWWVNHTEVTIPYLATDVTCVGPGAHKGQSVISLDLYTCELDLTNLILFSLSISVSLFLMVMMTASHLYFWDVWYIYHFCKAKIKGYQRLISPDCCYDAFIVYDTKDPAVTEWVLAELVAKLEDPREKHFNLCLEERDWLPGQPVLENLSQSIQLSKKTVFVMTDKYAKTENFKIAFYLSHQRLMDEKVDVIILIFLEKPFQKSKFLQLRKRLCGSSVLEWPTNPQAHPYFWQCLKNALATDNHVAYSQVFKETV
The following applies: administered parenterally as monotherapy; cited from earlier work.

With `CCc1nc2c(N)nc3ccccc3c2n1CCCCNS(C)(=O)=O` [852A], the clinical efficacy result is given as “modest clinical efficacy with disease stabilization”.
